Data taken from US10889573B2, “Anthelmintic quinoline-3-carboxamide derivatives” (Bayer Animal Health GMBH, priority 2016, dated 2021).

How the values were obtained:
[1] = log P by HPLC on reversed phase columns (Method L0)
Description: Measurement of log P values was performed according to EEC directive 79/831 Annex V.A8 by HPLC (High Performance Liquid Chromatography) on reversed phase columns with the following methods: • ^[a] log P value is determined by measurement of LC-UV, in an acidic range, with 0.1% formic acid in water and acetonitrile as eluent (linear gradient from 10% acetonitrile to 95% acetonitrile). • ^[b] log P value is determined by measurement of LC-UV, in a neutral range, with 0.001 molar ammonium acetate solution in water and acetonitrile as eluent (linear gradient from 10% acetonitrile to 95% acetonitrile).
Calibration was done with straight-chain alkan-2-ones (with 3 to 16 carbon atoms) with known log P values (measurement of log P values using retention times with linear interpolation between successive alkanones).

[2] = tested on: Dirofilaria immitis microfilariae; test: In vitro assay 3: Dirofilaria immitis microfilariae (DIROIM L1), motility; details: 72 h, read-out: EC50 (reduction of motility), 72 h incubation
C. elegans Slo-1a = C. elegans Slo-1a (Caenorhabditis elegans, UniProt Q95V25); details: pE50 (negative decadic logarithm of EC50), CHO cells expressing C. elegans Slo-1a, voltage sensitive dye
Sequence of C. elegans Slo-1a (Q95V25 whole entry): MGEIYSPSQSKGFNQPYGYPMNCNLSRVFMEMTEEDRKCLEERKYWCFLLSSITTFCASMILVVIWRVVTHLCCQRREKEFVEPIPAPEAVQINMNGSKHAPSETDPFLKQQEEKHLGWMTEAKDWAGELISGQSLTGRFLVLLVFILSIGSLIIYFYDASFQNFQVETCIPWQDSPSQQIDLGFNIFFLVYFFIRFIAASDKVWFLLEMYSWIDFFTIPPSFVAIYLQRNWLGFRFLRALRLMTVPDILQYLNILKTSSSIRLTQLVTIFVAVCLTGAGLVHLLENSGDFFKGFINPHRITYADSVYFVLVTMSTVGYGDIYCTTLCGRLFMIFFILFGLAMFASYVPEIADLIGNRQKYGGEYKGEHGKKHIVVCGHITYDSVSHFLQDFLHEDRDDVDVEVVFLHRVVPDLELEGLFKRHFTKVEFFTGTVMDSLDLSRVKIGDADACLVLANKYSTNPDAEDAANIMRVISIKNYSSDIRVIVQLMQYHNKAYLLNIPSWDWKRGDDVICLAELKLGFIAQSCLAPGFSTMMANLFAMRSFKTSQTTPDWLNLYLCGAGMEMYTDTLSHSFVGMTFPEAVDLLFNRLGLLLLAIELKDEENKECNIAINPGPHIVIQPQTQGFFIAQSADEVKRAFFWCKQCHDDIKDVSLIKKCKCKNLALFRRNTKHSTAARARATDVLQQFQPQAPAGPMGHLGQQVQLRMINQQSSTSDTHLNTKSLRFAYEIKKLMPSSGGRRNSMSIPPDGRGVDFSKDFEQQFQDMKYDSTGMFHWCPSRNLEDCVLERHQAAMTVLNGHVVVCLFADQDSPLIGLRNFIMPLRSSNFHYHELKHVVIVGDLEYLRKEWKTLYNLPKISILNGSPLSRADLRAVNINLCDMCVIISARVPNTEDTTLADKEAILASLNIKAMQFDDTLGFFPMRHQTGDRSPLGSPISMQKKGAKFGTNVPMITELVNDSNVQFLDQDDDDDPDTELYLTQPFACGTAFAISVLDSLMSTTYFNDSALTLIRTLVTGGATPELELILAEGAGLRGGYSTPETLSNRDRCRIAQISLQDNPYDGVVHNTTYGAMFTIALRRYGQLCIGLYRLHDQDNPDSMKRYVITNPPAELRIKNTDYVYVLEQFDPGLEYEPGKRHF
Description: In Vitro Assay 1: C. elegans Slo-1a—Action at a Recombinant C. elegans Cell Line
Cells were cultured at 37° C. and 5% CO2 in MEMalpha with Gutamax I (Invitrogen, Nr.: 32571), supplemented with 10% (v/v) heat inactivated fetal bovine serum (Invitrogen, Nr.: 10500), G418 (1 mg/ml, Invitrogen, Nr.: 10131). Cells were detached using Accutase (Sigma, Nr.: A6964).
Membrane Potential Measurements
Laboratory compound testing was performed on 384-well microtiter plates (MTPs, Greiner, Nr.: 781092). 8000 cells/well were plated onto 384-well MTPs and cultured for 20 to 24 hours at 37° C. and 5% CO2. After removal of the cell culture medium, the cells were washed once with tyrode (150 mM NaCl, 0.3 mM KCl, 2 mM CaCl2, 1 mM MgCl2, 0.8 mM NaH2PO4, 5 mM Glucose, 28 mM Hepes, pH 7.4) and then loaded with the voltage sensitive dye of the Membrane Potential Assay Kit diluted in tyrode for 1 h at room temperature.
After starting the measurement of fluorescence using a FLIPR Tetra (Molecular Devices, Exc. 510-545 nm, Emm. 565-625 nm), test compounds were added followed by the addition of KCl tyrode (final assay concentration: 70 mM KCl, 2 mM CaCl2, 1 mM MgCl2, 0.8 mM NaH2PO4, 5 mM Glucose, 28 mM Hepes, pH 7.4, including the voltage sensitive dye). The measurement was completed after 7 minutes.
The data were evaluated by using the ActivityBase XLfit software (IDBS) for curve fitting and calculation of the half-maximal effective concentration (EC50) and are reported as negative decadic logarithm (pE50).

[3] = tested on: Nippostrongylus brasiliensis; test: In vitro assay 2: Nippostrongylus brasiliensis (NIPOBR), acetylcholine esterase readout; details: 1 μg/ml, read-out: activity (reduction of AChE compared to negative control)
Summary of the method: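 Adult worms, washed in saline with antibiotics/antimycotic, were incubated in medium with compound (DMSO stock) at 10 μg/ml (10 ppm) or 1 μg/ml (1 ppm). Acetylcholine esterase activity in a medium aliquot was measured against a negative control as the anthelmintic readout.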

[4] = acidic range, 0.1% formic acid in water / acetonitrile
[5] = HPLC on reversed phase columns, Method L0

Compound: CCOC(=O)c1cnc2c(-c3cc(F)cc(F)c3F)cccc2c1N(C)C [Example 1U-5]
- logP (Method L0)[a] [1, 4]: 2.40

Compound: CCOC(=O)c1cnc2c(-c3cc(Cl)cc(Cl)c3Cl)c(F)ccc2c1N(C)C [Example 1U-8]
- logP (Method L0)[a] [1, 4]: 4.57

Compound: CCOC(=O)c1cnc2c(-c3cc(F)cc(F)c3F)c(F)ccc2c1N(C)C [Example 1U-11]
- logP (Method L0)[a] [1, 4]: 2.40

Compound: CCOC(=O)c1cnc2c(-c3cc(Cl)cc(Cl)c3)cccc2c1N1CCOCC1 [Example 1U-13]
- logP (Method L0)[a] [1, 4]: 5.19

Compound: CCOC(=O)c1cnc2c(-c3cccc(Cl)c3Cl)cccc2c1N1CCOCC1 [Example 1U-15]
- logP (Method L0)[a] [1, 4]: 3.90

Compound: O=C(O)c1cnc2c(-c3cccc(Cl)c3Cl)cccc2c1N1CCOCC1 [Example 1W-15]
- logP (Method L0)[a] [1, 4]: 1.86

Compound: CN(C)c1c(C(=O)N[C@H]2CCOc3ccccc32)cnc2c(-c3cc(Cl)cc(Cl)c3)cccc12 [Example 8]
- logP (Method L0)[a] [1, 5]: 2.53

Compound: Nc1c(C(=O)N[C@H]2CCOc3ccccc32)cnc2c(-c3cc(Cl)cc(Cl)c3)cccc12 [Example 58]
- logP (Method L0)[a] [1, 5]: 2.11

Compound: CN(C)CCNc1c(C(=O)N[C@H]2CCc3ccccc32)cnc2c(-c3cc(Cl)cc(Cl)c3)cccc12 [Example 88]
- logP (Method L0)[a] [1, 5]: 1.3

Compound: COCCNc1c(C(=O)N[C@H]2CCc3ccccc32)cnc2c(-c3cc(Cl)cc(Cl)c3)cccc12 [Example 89]
- logP (Method L0)[a] [1, 5]: 2.2

Compound: CCN(CCOC)c1c(C(=O)N[C@H]2CCc3ccccc32)cnc2c(-c3cc(Cl)cc(Cl)c3)cccc12 [Example 90]
- logP (Method L0)[a] [1, 5]: 4.9

Compound: COC[C@@H]1CCCN1c1c(C(=O)N[C@H]2CCc3ccccc32)cnc2c(-c3cc(Cl)cc(Cl)c3)cccc12 [Example 91]
- logP (Method L0)[a] [1, 5]: 2.9

Compound: COC[C@H]1CCCN1c1c(C(=O)N[C@H]2CCc3ccccc32)cnc2c(-c3cc(Cl)cc(Cl)c3)cccc12 [Example 92]
- logP (Method L0)[a] [1, 5]: 2.9

Compound: O=C(N[C@H]1CCc2ccccc21)c1cnc2c(-c3cc(Cl)cc(Cl)c3)cccc2c1NCCN1CCCC1 [Example 96]
- logP (Method L0)[a] [1, 5]: 1.4

Compound: O=C(N[C@H]1CCc2ccccc21)c1cnc2c(-c3cc(Cl)cc(Cl)c3)cccc2c1NCc1ccccn1 [Example 99-1]
- logP (Method L0)[a] [1, 5]: 2.2

Compound: CCC(CO)Nc1c(C(=O)NC2CCc3ccccc32)cnc2c(-c3cc(Cl)cc(Cl)c3)cccc12 (stereo not shown) [Example 99-2]
- logP (Method L0)[a] [1, 5]: 2.1

Compound: O=C(N[C@H]1CCc2ccccc21)c1cnc2c(-c3cc(Cl)cc(Cl)c3)cccc2c1NCCO [Example 100]
- logP (Method L0)[a] [1, 5]: 1.9

Compound: O=C(N[C@H]1CCc2ccccc21)c1cnc2c(-c3cc(Cl)cc(Cl)c3)cccc2c1N1CC[C@@H](O)C1 [Example 101]
- logP (Method L0)[a] [1, 5]: 1.8

Compound: CN(CC1CC1)c1c(C(=O)N[C@H]2CCc3ccccc32)cnc2c(-c3cc(Cl)cc(Cl)c3)cccc12 [Example 106]
- logP (Method L0)[a] [1, 5]: 3.7

Compound: O=C(N[C@H]1CCc2ccccc21)c1cnc2c(-c3cc(Cl)cc(Cl)c3)cccc2c1N1CCC(F)(F)C1 [Example 112]
- logP (Method L0)[a] [1, 5]: 2.6

Compound: CC(=O)N1CCN(c2c(C(=O)N[C@H]3CCc4ccccc43)cnc3c(-c4cc(Cl)cc(Cl)c4)cccc23)CC1 [Example 116]
- logP (Method L0)[a] [1, 5]: 3.4

Compound: CN(C)C(=O)CCNc1c(C(=O)N[C@H]2CCc3ccccc32)cnc2c(-c3cc(Cl)cc(Cl)c3)cccc12 [Example 122]
- logP (Method L0)[a] [1, 5]: 2

Compound: O=C(N[C@H]1CCc2ccccc21)c1cnc2c(-c3cc(Cl)cc(Cl)c3)cccc2c1NCCn1cccn1 [Example 125]
- logP (Method L0)[a] [1, 5]: 2.1

Compound: C[C@H](Nc1c(C(=O)N[C@H]2CCc3ccccc32)cnc2c(-c3cc(Cl)cc(Cl)c3)cccc12)C(N)=O [Example 127]
- logP (Method L0)[a] [1, 5]: 1.9

Compound: COC(=O)CNc1c(C(=O)N[C@H]2CCc3ccccc32)cnc2c(-c3cc(Cl)cc(Cl)c3)cccc12 [Example 128]
- logP (Method L0)[a] [1, 5]: 2.1

Compound: NC(=O)CNc1c(C(=O)N[C@H]2CCc3ccccc32)cnc2c(-c3cc(Cl)cc(Cl)c3)cccc12 [Example 129]
- logP (Method L0)[a] [1, 5]: 1.8

Compound: O=C(N[C@H]1CCOc2ccccc21)c1cnc2c(-c3cc(Cl)cc(Cl)c3)cccc2c1Nc1ccncc1 [Example 136]
- logP (Method L0)[a] [1, 5]: 2.1

Compound: CN(CCO)c1c(C(=O)N[C@H]2CCOc3ccccc32)cnc2c(-c3cc(Cl)cc(Cl)c3)cccc12 [Example 138]
- logP (Method L0)[a] [1, 5]: 2.7

Compound: COc1ccc2c(c1)[C@@H](NC(=O)c1cnc3c(-c4cc(Cl)cc(Cl)c4)cccc3c1N(C)C)CCO2 [Example 147]
- logP (Method L0)[a] [1, 5]: 2.76

Compound: CN(CCN1CCOCC1)c1c(C(=O)N[C@H]2CCOc3ccccc32)cnc2c(-c3cc(Cl)cc(Cl)c3)cccc12 [Example 149]
- logP (Method L0)[a] [1, 5]: 2.2

Compound: CN(C)c1c(C(=O)N[C@H]2CCOc3cc(F)ccc32)cnc2c(-c3cc(Cl)cc(Cl)c3)cccc12 [Example 152]
- logP (Method L0)[a] [1, 5]: 3

Compound: CCNc1c(C(=O)N[C@H]2CCOc3ccccc32)cnc2c(-c3cc(Cl)cc(Cl)c3)cccc12 [Example 153]
- logP (Method L0)[a] [1, 5]: 2.1

Compound: CC(C)(C)OC(=O)CNc1c(C(=O)N[C@H]2CCOc3ccccc32)cnc2c(-c3cc(Cl)cc(Cl)c3)cccc12 [Example 182]
- logP (Method L0) [1, 5]: 3.3

Compound: CN(CC(=O)OC(C)(C)C)c1c(C(=O)N[C@H]2CCOc3ccccc32)cnc2c(-c3cc(Cl)cc(Cl)c3)cccc12 [Example 183]
- logP (Method L0) [1, 5]: 6

Compound: CCCNc1c(C(=O)N[C@H]2CCOc3ccccc32)cnc2c(-c3cc(Cl)cc(Cl)c3)cccc12 [Example 184]
- logP (Method L0) [1, 5]: 3

Compound: NCCNc1c(C(=O)N[C@H]2CCOc3ccccc32)cnc2c(-c3cc(Cl)cc(Cl)c3)cccc12 [Example 185]
- logP (Method L0) [1, 5]: 2

Compound: O=C(N[C@H]1CCOc2ccccc21)c1cnc2c(-c3cc(Cl)cc(Cl)c3)cccc2c1-n1ccnn1 [Example 188, 8-(3,5-dichlorophenyl)-N-[(4S)-3,4-dihydro-2H-chromen-4-yl]-4-(1H-1,2,3-triazol-1-yl)quinoline-3-carboxamide]
- EC50 [2]: < 0.1 µg/mL
- chromatographic logP [1]: 4.5
- EC50 (C. elegans Slo-1a): 3.16 to 31.6 nM

Compound: O=C(N[C@H]1CCOc2ccccc21)c1cnc2c(-c3cc(Cl)cc(Cl)c3)cccc2c1-n1nccn1 [Example 189, 8-(3,5-dichlorophenyl)-N-[(4S)-3,4-dihydro-2H-chromen-4-yl]-4-(2H-1,2,3-triazol-2-yl)quinoline-3-carboxamide]
- inhibition at 1 µg/mL [3]: > 80%
- EC50 [2]: < 0.1 µg/mL
- chromatographic logP [1]: 5
- EC50 (C. elegans Slo-1a): < 3.16 nM

Compound: CON(C)c1c(C(=O)N[C@H]2CCOc3ccccc32)cnc2c(-c3ccccc3Cl)cccc12 [Example 248]
- logP (Method L0) [1, 5]: 3.41

Compound: CON(C)c1c(C(=O)N[C@H]2CCOc3ccccc32)cnc2c(-c3cccc(Cl)c3Cl)cccc12 [Example 249]
- logP (Method L0) [1, 5]: 3.99

Compound: CON(C)c1c(C(=O)N[C@H]2CCOc3ccccc32)cnc2c(-c3cc(Cl)cc(Cl)c3)cccc12 [Example 250]
- logP (Method L0) [1, 5]: 4.87

Compound: CN(c1c(C(=O)N[C@H]2CCOc3ccccc32)cnc2c(-c3ccccc3Cl)cccc12)C1CC1 [Example 252]
- logP (Method L0) [1, 5]: 2.23

Compound: CN(c1c(C(=O)N[C@H]2CCOc3ccccc32)cnc2c(-c3cccc(Cl)c3Cl)cccc12)C1CC1 [Example 253]
- logP (Method L0) [1, 5]: 2.8

Compound: CN(c1c(C(=O)N[C@H]2CCOc3ccccc32)cnc2c(-c3cc(Cl)cc(Cl)c3)cccc12)C1CC1 [Example 254]
- logP (Method L0) [1, 5]: 3.81

Compound: CCOP(=O)(CN(C)c1c(C(=O)N[C@H]2CCOc3ccccc32)cnc2c(-c3cc(Cl)cc(Cl)c3)cccc12)OCC [Example 285]
- logP (Method L0) [1, 5]: 4.62

Compound: O=C(N[C@H]1CCOc2ccccc21)c1cnc2c(-c3cc(Cl)cc(Cl)c3)cccc2c1N1CC2CC(C1)O2 [Example 300]
- logP (Method L0) [1, 5]: 2.6

Compound: O=C(N[C@H]1CCOc2ccccc21)c1cnc2c(-c3cc(Cl)cc(Cl)c3)cccc2c1N1CC2COCC(C1)O2 [Example 301]
- logP (Method L0) [1, 5]: 3.3

Compound: Cn1c(=O)n(C)n(-c2c(C(=O)N[C@H]3CCOc4ccccc43)cnc3c(-c4cccc(Cl)c4Cl)cccc23)c1=O [Example 321]
- logP (Method L0)^[a] [1, 5]: 3.37

Compound: CN(CCN1CCCC1=O)c1c(C(=O)N[C@H]2CCOc3ccccc32)cnc2c(-c3cc(Cl)cc(Cl)c3)cccc12 [Example 328]
- logP (Method L0)^[a] [1, 5]: 3.3

Compound: O=C(N[C@H]1CCOc2ccccc21)c1cnc2c(-c3cc(Cl)cc(Cl)c3)cccc2c1C1CC1 [Example 358]
- logP (Method L0)^[a] [1, 5]: 4.9

Compound: CCSc1c(C(=O)N[C@H]2CCOc3ccccc32)cnc2c(-c3cccc(Cl)c3Cl)cccc12 [Example 366]
- logP (Method L0)^[a] [1, 5]: 4.79

Compound: CCSc1c(C(=O)N[C@H]2CCOc3ccccc32)cnc2c(-c3cc(Cl)cc(Cl)c3)cccc12 [Example 367]
- logP (Method L0)^[a] [1, 5]: 5.48

Compound: CC[S+]([O-])c1c(C(=O)N[C@H]2CCOc3ccccc32)cnc2c(-c3cccc(Cl)c3Cl)cccc12 (stereo partly shown) [Example 368]
- logP (Method L0)^[a] [1, 5]: 3.76

Compound: CC[S+]([O-])c1c(C(=O)N[C@H]2CCOc3ccccc32)cnc2c(-c3cc(Cl)cc(Cl)c3)cccc12 (stereo partly shown) [Example 370]
- logP (Method L0)^[a] [1, 5]: 4.44

Compound: CCS(=O)(=O)c1c(C(=O)N[C@H]2CCOc3ccccc32)cnc2c(-c3cc(Cl)cc(Cl)c3)cccc12 [Example 371]
- logP (Method L0)^[a] [1, 5]: 4.54

Compound: Cc1nc2c(-c3cccc(Cl)c3Cl)cccc2c(N(C)C)c1C(=O)N[C@H]1CCOc2ccccc21 [Example 523]
- logP (Method L0)^[a] [1, 5]: 2.11

Compound: O=C(N[C@H]1CCOc2ccccc21)c1cnc2c(-c3cc(F)cc(F)c3F)c(F)ccc2c1N1CCOCC1 [Example 540]
- logP (Method L0)^[a] [1, 5]: 3.72

Compound: CNc1c(C(=O)N[C@H]2CCOc3ccccc32)cnc2c(-c3cc(F)c(OC(F)F)c(F)c3)c(F)ccc12 [Example 547]
- logP (Method L0)^[a] [1, 5]: 1.81

Compound: O=C(N[C@H]1CCOc2ccccc21)c1cnc2c(-c3cc(F)cc(F)c3F)c(Cl)ccc2c1N1CCOCC1 [Example 576]
- logP (Method L0)^[a] [1, 5]: 3.90
